# From US9863937B2, “Fluorescent molecular rotors” (Agency for Science, Technology and Research, priority 2012, dated 2018)
# “Also recorded” adds a separate entry of the source.
# Assays:
# plasmid DNA = assay: Rotor fluorescence with plasmid DNA; type: binding; conditions: 100 uM rotor, 5 ug plasmid DNA
# Method: 100 uM of Sybr green, Pyrene or CCVJ rotors were each added to either 5 ug plasmid DNA, 5 ug DNA with 500 mM NaOH, or PBS buffer only. Resulting fluorescence for each reaction mixture were then compared across the respective filters (Sybr 497/520, Pyrene 376/530, Julolidine 433/505).
# [1] = system: p53 binding sequence duplex DNA; assay: Rotor fluorescence with p53 binding sequence duplex DNA (intercalation); conditions: FIG. 7
# Method: For the first set with DNA only, 1×PBS buffer and p53 6× binding buffer were first added to the wells. Subsequently, rotor was added. Lastly, DNA was added. The combined solutions were mixed in each well and allowed to incubate in the dark at room temperature for, half an hour before data on fluorescence intensity was gathered.
# (§1) Measurements were taken using Greiner 384 black flat-clear-bottom for 18 uL mixtures, Corning 96 flat-black half-area for 80 uL and 100 uL mixtures, and Tecan Infinite M-1000 Spectrophotometer.
# [2] = biological target: p53 protein binding to DNA (Homo sapiens, UniProt P04637); assay: Fluorescence change of DNA-bound rotor on addition of p53 protein
# Chain of p53 protein binding to DNA (P04637 whole entry): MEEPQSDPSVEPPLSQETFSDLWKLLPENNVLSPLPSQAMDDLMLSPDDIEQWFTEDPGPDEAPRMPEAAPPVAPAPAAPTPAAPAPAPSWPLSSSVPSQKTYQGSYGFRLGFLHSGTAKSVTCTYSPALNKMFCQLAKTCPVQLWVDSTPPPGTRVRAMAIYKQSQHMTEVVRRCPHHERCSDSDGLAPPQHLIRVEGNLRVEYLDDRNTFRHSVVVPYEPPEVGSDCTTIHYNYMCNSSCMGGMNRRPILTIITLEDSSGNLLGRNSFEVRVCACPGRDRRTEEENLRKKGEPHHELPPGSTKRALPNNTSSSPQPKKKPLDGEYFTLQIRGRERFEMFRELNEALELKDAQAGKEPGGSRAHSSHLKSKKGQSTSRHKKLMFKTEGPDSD
# Method: For the third set with DNA and p53, 1×PBS buffer and p53 6× binding buffer were first added to the wells. Subsequently, rotor was added and DNA was added. The combined solutions were mixed in each well and allowed to incubate in the dark at room temperature for half an hour before p53 was added. The combined solutions were then allowed to incubate in the dark at room temperature for another half an hour before data on fluorescence intensity was gathered.
# 6× binding buffer consists: 150 mM sodium phosphate buffer, 600 uM KCl, 24 mM DTT.
# as §1
# streptavidin = streptavidin (Streptomyces avidinii, UniProt P22629); assay: Fluorescence of rotor-biotin conjugate on addition of streptavidin; type: binding
# Chain of streptavidin (P22629 25-183, species assumed): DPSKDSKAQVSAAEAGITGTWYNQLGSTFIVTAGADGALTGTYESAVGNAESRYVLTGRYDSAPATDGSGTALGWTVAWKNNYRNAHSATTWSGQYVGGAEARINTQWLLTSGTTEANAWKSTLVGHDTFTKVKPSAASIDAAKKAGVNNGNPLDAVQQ
# Method: FIG. 4a depicts the emission spectra of a CCVJ molecular rotor bound to biotin with Streptavidin. […] 40 μM of rotor-biotin conjugate was incubated for 15 min with 50 μg of streptavidin. Fluorescence emission spectrum was measured using an excitation wavelength (λex) of 433 nm.
# MDM2 = MDM2 (Homo sapiens, UniProt Q00987); conditions: unconjugated peptide, Table 9; ITC; read-out: Previously reported Kd value; cited from earlier work
# Chain of MDM2 (Q00987 whole entry): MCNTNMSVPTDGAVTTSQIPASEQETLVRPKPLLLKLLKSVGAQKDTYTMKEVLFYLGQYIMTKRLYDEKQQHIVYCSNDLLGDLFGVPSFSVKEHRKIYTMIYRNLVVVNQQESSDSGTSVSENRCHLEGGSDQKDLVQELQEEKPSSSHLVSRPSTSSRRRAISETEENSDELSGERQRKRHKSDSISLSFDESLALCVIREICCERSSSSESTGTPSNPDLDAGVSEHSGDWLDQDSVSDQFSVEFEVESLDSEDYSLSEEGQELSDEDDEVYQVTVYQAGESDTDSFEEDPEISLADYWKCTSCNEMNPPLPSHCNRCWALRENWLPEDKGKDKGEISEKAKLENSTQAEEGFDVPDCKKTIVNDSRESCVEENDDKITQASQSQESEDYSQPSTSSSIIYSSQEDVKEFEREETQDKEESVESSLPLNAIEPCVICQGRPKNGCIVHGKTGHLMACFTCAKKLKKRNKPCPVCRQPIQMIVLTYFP
compound,measurement,setting,value
"N#C/C(=C\c1cc2c3c(c1)CCCN3CCC2)C(=O)O [CCVJ, 9-(2-carboxy-2-cyanovinyl) julolidine]",Fluorescence signal with plasmid DNA,plasmid DNA,weak signal
CN(C)c1ccc2cc3ccc(N(C)C)c(/C=C(\C#N)C(=O)O)c3nc2c1 [acridine-based rotor],Rotor:DNA ratio at saturation of fluorescence intensity,[1],0.5 × rotor
same,Fluorescence change when p53 is added to DNA-bound rotor,[2],decreased fluorescence signal; also recorded: fluorescence intensity dropped
N#C/C(=C\c1cc2c3c(c1)CCCN3CCC2)C(=O)OCCNC(=O)CCCCC1SCC2NC(=O)NC21 (centres unmarked) [biotin-rotor probe],Fluorescence increase on addition of streptavidin,"streptavidin; 40 μM conjugate, 50 μg streptavidin, 15 min",2 fold
"C[n+]1ccc(/C=C/c2ccc3c(c2)c2cc(/C=C/c4cc[n+](C)cc4)ccc2n3-c2ccccc2)cc1 [carbazole-based (2-arm) rotor, 4,4′-((1E,1′E)-(9-phenyl-9H-carbazole-3,6-diyl)bis(ethene-2,1-diyl))bis(1-methylpyridin-1-ium)]",Rotor:DNA ratio at saturation of fluorescence intensity,[1],15 × rotor
same,Fluorescence change when p53 is added to DNA-bound rotor,[2],turn-off effect
"C[n+]1ccc(/C=C/c2ccc(-n3c4ccc(/C=C/c5cc[n+](C)cc5)cc4c4cc(/C=C/c5cc[n+](C)cc5)ccc43)cc2)cc1 [carbazole-based (3-arm) rotor, 4,4′-((1E,1′E)-(9-(4-((E)-2-(1-methylpyridin-1-ium-4-yl)vinyl)phenyl)-9H-carbazole-3,6-diyl)bis(ethene-2,1-diyl))bis(1-methylpyridin-1-ium)]",Rotor:DNA ratio at saturation of fluorescence intensity,[1],15 × rotor
N#C/C(=C\c1ccc2ccc3cccc4ccc1c2c34)C(=O)O [pyrene-based molecular rotor],Fluorescence change on binding to streptavidin,streptavidin; FIG. 4b,fluorescence increase
C[n+]1c(/C=C2/C=CN(CCCN)c3ccccc32)sc2ccccc21 [thiazole-based rotor],Rotor:DNA ratio at saturation of fluorescence intensity,[1],15 × rotor
MPRFMDYWEGLNK [JP2],Kd,MDM2,240 ± 53.8 nM
MPRFMDYWEGLSK [JP1],Kd,MDM2,18.8 ± 5.03 nM
